Results on nine molecules are retold here after PubChem BioAssay (NCI).

Molecules are shown by their SMILES.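 Grown in 96-well plates, cells were treated for 48 hours with each compound at five concentrations. Insufficient inhibition: endpoint recorded as highest concentration tested. At the GI50, growth is halved. TGI denotes the concentration required for complete inhibition of growth.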 Bounds are passed on as bounds.

Some test systems named below: A498 renal; IGROV1 ovarian; K-562 leukemia; OVCAR-3 ovarian; OVCAR-8 ovarian; SF-268 CNS; SN12C renal; SR leukemia; SW-620 colon; T-47D breast.
Common to all, as to assay: NCI-60 cell line screen, 48 h

On to `Cn1cc(C2=C(c3c[nH]c4ccccc34)C(=O)NC2=O)c2ccccc21`, for which the GI50 in the assay on A498 renal is 0.169 µM; in the assay with IGROV1 ovarian, 0.975 µM; in the assay with K-562 leukemia, 0.704 µM; in the assay on OVCAR-3 ovarian, 0.94 µM; with OVCAR-8 ovarian, 1.51 µM; in the assay on SF-268 CNS, 1.1 µM. The GI50 was 1.32 µM in the assay on SN12C renal, 0.233 µM with SR leukemia, above 4.92 µM in the assay with SW-620 colon and 0.846 µM in the assay with T-47D breast. Further, the TGI in the assay with A498 renal is 0.755 µM; in the assay on IGROV1 ovarian, above 25 µM; in the assay on K-562 leukemia, above 25 µM; with OVCAR-3 ovarian, above 11.9 µM; with OVCAR-8 ovarian, above 25 µM; in the assay with SF-268 CNS, above 25 µM. Moreover, the TGI in the assay with SN12C renal, in the assay on SW-620 colon and in the assay with T-47D breast was above 25 µM in each case.
Turning to `O=C(NCC(F)(F)F)Nc1cccc(-c2cnc3cc(-c4ccc(F)cc4)ccn23)c1`, the GI50 with A498 renal was 0.29 µM; with IGROV1 ovarian, 0.673 µM; in the assay on K-562 leukemia it was 0.376 µM; in the assay on OVCAR-3 ovarian it was 0.812 µM; with OVCAR-8 ovarian it was 2.83 µM; in the assay with SF-268 CNS, 2.8 µM. In addition, the GI50 was 1.54 µM with SN12C renal, 0.314 µM with SR leukemia, 0.515 µM in the assay with SW-620 colon and 2.69 µM in the assay on T-47D breast. Moreover, the TGI with A498 renal is 2.47 µM; with IGROV1 ovarian, 7.75 µM; with K-562 leukemia, 10.9 µM; in the assay with OVCAR-3 ovarian it was 15.8 µM; in the assay with OVCAR-8 ovarian it was 33.6 µM; in the assay on SF-268 CNS, above 100 µM. Moreover, the TGI in the assay with SN12C renal was above 67.4 µM; with SR leukemia, 11.1 µM; with SW-620 colon, 36.8 µM; with T-47D breast, 62 µM.
Turning to `CNCCCNc1nc2ccccc2c2c(=O)c3cc(OC)ccc3sc12`, the GI50 in the assay with A498 renal is 2.25 µM; in the assay with IGROV1 ovarian, 1.55 µM; in the assay on K-562 leukemia, 2 µM; with OVCAR-3 ovarian, 1.82 µM; with OVCAR-8 ovarian it was 2.17 µM; in the assay on SF-268 CNS, 1.71 µM. The GI50 is 1.67 µM in the assay with SN12C renal, 3.55 µM with SR leukemia, 1.72 µM in the assay with SW-620 colon and 2.22 µM in the assay with T-47D breast. Further, the TGI with A498 renal came out at 8.72 µM; in the assay with IGROV1 ovarian, 3.03 µM; in the assay on K-562 leukemia, 5.38 µM; in the assay with OVCAR-3 ovarian it was 3.43 µM; in the assay on OVCAR-8 ovarian, 5.34 µM; in the assay with SF-268 CNS, 3.42 µM. For the same molecule, the TGI was 3.28 µM in the assay on SN12C renal, above 100 µM in the assay on SR leukemia, 3.28 µM in the assay on SW-620 colon and 5.61 µM in the assay on T-47D breast.
As for `COC(=O)Nc1nc2ccccc2[nH]1`, the TGI is above 100 µM in the assay with A498 renal; above 100 µM in the assay on IGROV1 ovarian; above 100 µM with K-562 leukemia; 28.6 µM in the assay on OVCAR-3 ovarian; above 89.1 µM with OVCAR-8 ovarian; above 100 µM in the assay with SF-268 CNS. Besides, the TGI in the assay with SN12C renal, with SR leukemia, in the assay with SW-620 colon and in the assay with T-47D breast was above 100 µM each time.
Consider `NC(=O)c1ccc(Oc2nccc(-c3c(-c4ccc(F)cc4)ncn3C3CCNCC3)n2)cc1`, for which the GI50 in the assay with A498 renal is above 18.2 µM; in the assay with IGROV1 ovarian, above 25 µM; in the assay on K-562 leukemia it was above 25 µM; with OVCAR-3 ovarian, above 25 µM; in the assay on OVCAR-8 ovarian it was above 25 µM; with SF-268 CNS, above 25 µM. Besides, the GI50 with SN12C renal, in the assay with SR leukemia, with SW-620 colon and in the assay with T-47D breast was above 25 µM each time. Also, the TGI in the assay with A498 renal, in the assay with IGROV1 ovarian, with K-562 leukemia, in the assay with OVCAR-3 ovarian, with OVCAR-8 ovarian and in the assay with SF-268 CNS was above 25 µM in each case. For the same molecule, the TGI in the assay with SN12C renal, with SR leukemia, in the assay on SW-620 colon and with T-47D breast was above 25 µM each time.
Regarding `O=C(NCCCc1cn[nH]c1)c1ccc(-c2ccncc2)c(C#Cc2ccc(F)cc2)c1`, the GI50 was 20.1 µM in the assay on A498 renal; 0.0282 µM in the assay with IGROV1 ovarian; below 0.01 µM in the assay on K-562 leukemia; 6.27 µM with OVCAR-3 ovarian; below 0.01 µM with OVCAR-8 ovarian; 58.8 µM with SF-268 CNS. The GI50 in the assay with SN12C renal was below 0.01 µM; in the assay with SR leukemia, 2.53 µM; with SW-620 colon it was below 0.01 µM. For the same molecule, the TGI in the assay with A498 renal is above 68.5 µM; in the assay with IGROV1 ovarian, above 100 µM; in the assay on K-562 leukemia, above 100 µM; in the assay with OVCAR-3 ovarian, above 100 µM; in the assay on OVCAR-8 ovarian, above 100 µM; in the assay on SF-268 CNS, above 100 µM. Further, the TGI in the assay with SN12C renal is above 100 µM; with SR leukemia it was above 100 µM; with SW-620 colon, above 100 µM; in the assay on T-47D breast, 11 µM.
In the case of `O=C(Nc1ccccc1I(=O)=O)C1CCCCC1`, the GI50 is above 100 µM with A498 renal; above 100 µM with IGROV1 ovarian; 56.8 µM in the assay on K-562 leukemia; above 100 µM in the assay on OVCAR-3 ovarian; above 100 µM in the assay on OVCAR-8 ovarian; above 100 µM in the assay on SF-268 CNS. The GI50 in the assay on SN12C renal was above 100 µM; in the assay on SR leukemia it was above 100 µM; in the assay on SW-620 colon it was above 100 µM; in the assay on T-47D breast it was 58.5 µM. For the same molecule, the TGI in the assay with A498 renal, in the assay on IGROV1 ovarian, in the assay on K-562 leukemia, in the assay on OVCAR-3 ovarian, in the assay with OVCAR-8 ovarian and with SF-268 CNS was above 100 µM throughout. In addition, the TGI with SN12C renal, in the assay with SR leukemia, with SW-620 colon and in the assay on T-47D breast was above 100 µM in each case.
As for `Cc1c(C#N)cccc1[C@@H](C)Nc1nnc(C)c2cnc(N3CCOCC3)cc12`, the GI50 was 2.72 µM with A498 renal; 24 µM in the assay on IGROV1 ovarian; 0.367 µM in the assay on K-562 leukemia; 14.5 µM with OVCAR-3 ovarian; 38.5 µM in the assay on OVCAR-8 ovarian; 14.1 µM with SF-268 CNS. Also, the GI50 with SN12C renal is 17.9 µM; in the assay with SR leukemia, 10.7 µM; with SW-620 colon, 18.9 µM; in the assay with T-47D breast it was 18.5 µM. The TGI with A498 renal was above 100 µM; with IGROV1 ovarian, above 100 µM; with K-562 leukemia, above 100 µM; in the assay with OVCAR-3 ovarian it was 66.1 µM; in the assay with OVCAR-8 ovarian, above 100 µM; in the assay on SF-268 CNS, above 100 µM. Also, the TGI in the assay on SN12C renal is above 100 µM; with SR leukemia, 92.1 µM; in the assay on SW-620 colon, above 100 µM; with T-47D breast, 81.3 µM.
With `O=[N+]([O-])c1ccc(Cl)c(CNc2ncnc3c2ncn3C2CCCCO2)c1` (stereo not drawn), the TGI was 43.9 µM in the assay on A498 renal; above 100 µM in the assay on IGROV1 ovarian; above 100 µM in the assay on K-562 leukemia; above 100 µM with OVCAR-3 ovarian; above 100 µM with OVCAR-8 ovarian; above 100 µM with SF-268 CNS. Further, the TGI in the assay on SN12C renal was above 100 µM; with SR leukemia it was 64.4 µM; in the assay with SW-620 colon, above 100 µM; in the assay on T-47D breast, above 100 µM.
